Tests used:
estrogen receptor (ER) [1] = assay: adenoERreporter assay in fine needle aspirates (FNA) from recurrent breast cancer; type: cell-based, human
Description: Cells obtained from FNAs were collected in PBS (Sigma, Poole, UK) containing 2% FCS. If the aspirate was bloody, erythrocyte lysis buffer (0.155M NH4Cl, 10 mM KHCO3, 0.1 mM EDTA, pH 7.4) was used to lyse the red blood cells and after a further wash with PBS, the cells were re-suspended in culture media for counting and immediate infections.
(§1) For infections of primary cells, 6-10,000 cells/well were allowed and exposed to the given quantity of virus, after which they were pelleted and re-supended in 200 ul of PR free/5% DSS medium containing the appropriate ligands prior to plating into 96-well plates.
(§2) Reporter Gene Assay 48 hours after virus infection, 20 ul of 20% Triton in PBS was added to each well and incubated at RT for 10 minutes. […] (CRPG) made up in TBS at a concentration of 8 mg/ml was then added to the wells and the plate was incubated, foil-wrapped, at 37° C. until a colour change was observed. Plate readings were taken at a wavelength of 547 nm.
We purified breast cancer cells from metastatic fluid, both pleural and ascites as well as fine needle aspirates (FNA) from recurrent breast cancer. These cells were counted and infected with adenoERreporter and after 48 hours a β-gal assay was performed. We have infected 9 metastatic effusions including 2 cell lines of passage number two, derived from pleural effusions and 4 FNAs. Tables 3 and 4 show the treatment history and characteristics of the patients that provided the samples. Where possible, some of the fluid was sent for cytology and ER staining. However, this was not always feasible due to the variability of cancer cells in the metastatic fluid.

estrogen receptor (ER) [2] = target: T1, estrogen receptor (ER) (Homo sapiens, UniProt P03372); conditions: antagonist at 10^−7M; MCF7, virus 100:1, 48 hours
T1 sequence (P03372 1-595): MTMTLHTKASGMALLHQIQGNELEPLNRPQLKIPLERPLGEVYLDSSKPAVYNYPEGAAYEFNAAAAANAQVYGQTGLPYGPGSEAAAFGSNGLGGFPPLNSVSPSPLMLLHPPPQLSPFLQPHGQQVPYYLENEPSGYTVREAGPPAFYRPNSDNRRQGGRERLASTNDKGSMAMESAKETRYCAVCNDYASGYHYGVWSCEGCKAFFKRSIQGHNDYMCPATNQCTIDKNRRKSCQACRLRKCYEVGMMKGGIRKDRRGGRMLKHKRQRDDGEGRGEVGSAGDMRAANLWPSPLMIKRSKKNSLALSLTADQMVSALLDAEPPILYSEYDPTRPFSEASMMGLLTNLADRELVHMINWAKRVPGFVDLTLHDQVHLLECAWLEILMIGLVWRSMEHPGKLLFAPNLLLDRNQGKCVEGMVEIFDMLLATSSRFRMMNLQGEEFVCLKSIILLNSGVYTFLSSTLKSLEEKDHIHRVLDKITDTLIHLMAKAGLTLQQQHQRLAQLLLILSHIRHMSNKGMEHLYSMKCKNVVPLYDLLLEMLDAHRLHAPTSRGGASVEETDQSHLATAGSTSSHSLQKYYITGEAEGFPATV
Description: (§3) Cells were incubated for 48 hours following infections unless stated otherwise.
as §2

estrogen receptor (ER) [3] = target: T1, estrogen receptor (ER); conditions: ER positive cell lines (MCF-7, T47-D, ZR75-1, BT474), virus 100:1, ligands 10^−7M
Description: as §2

estrogen receptor (ER) [4] = target: T1, estrogen receptor (ER); conditions: infected MCF7 cells
estrogen receptor (ER) [5] = target: T1, estrogen receptor (ER); assay: adeno-reporter assay in purified primary breast cancer cells (tumour, lymph node); type: cell-based; conditions: E2 10 nM, OHT 100 nM, ICI 100 nM, 48 h
Description: (§4) The product was then filtered through a nylon mesh (Lockertex Ltd, Merseyside, UK) and the filtrate centrifuged at 2000 rpm, at room temperature (RT). The pellet was re-suspended in 9 mls of RPMI/1% FCS and a cell count performed to estimate the number of tumour cells in the preparation. […] A count of viable tumour cells was performed using trypan blue (Sigma, Poole, UK) prior to seeding in breast complete medium (DMEM/F-12 containing, 15 mM Hepes, 2 mM L-glutamine, 100U/ml penicillin, O. 1 mg/ml streptomycin, 50 U/ml polymixin B, 2.5 μg/ml amphotericin B, 5 μg/ml insulin, 10 μg/ml apo-transferrin, 100 μM ethanolamine, 1 μg/ml hydrocortisone, 10 ng/ml EGF) plus 5% FCS) for culture. The cells were used for experiments on day 3 after the initial plating.
as §1, §3, §2
(§5) We have used the adeno-reporter to infect purified cells from breast cancer and lymph nodes of 19 patients. The reporter assay was performed in a blinded fashion since the IHC report of ER status was not available until after the experiments were complete. Viral infections were performed in suspension so as not to loose cancer cells since they were only loosely adherent. Following exposure to the virus for an hour, the cells were washed to remove excess virus and then plated and incubated in PR free/5% DSS supplemented with the given ligands for 48 hours.

estrogen receptor (ER) [6] = assay: as above; type: cell-based, human; conditions: for Reporter response: E2 10 nM, OHT 100 nM, ICI 100 nM, 48 h
Description: as §4, §1, §3, §2, §5

SMILES: C[C@]12CC[C@@H]3c4ccc(O)cc4C[C@@H](CCCCCCCCC[S+]([O-])CCCC(F)(F)C(F)(F)F)[C@H]3[C@@H]1CC[C@@H]2O (stereo partly drawn) [ICI 182,780]
- Reporter Assay: inhibition (estrogen receptor (ER) [1]; FNA summary table, N = 1, IHC ER−/PR−, ?Responder): OHT/ICI inhibit by × 1.8
- Reporter Activity (estrogen receptor (ER) [1]; Table 4 patient 8) T2GN0M0, primary ER++/PR−, FNA ER−/PR−, prior Arimidex 1y): x1.0
- effect on E2 induced reporter activity (estrogen receptor (ER) [2]): blocked E2 induced reporter activity
- reporter activity above baseline (estrogen receptor (ER) [3]): blocked even the baseline activity
- β-gal expression by X-gal staining (estrogen receptor (ER) [4]): completely abolished even basal levels of staining
- Reporter response (estrogen receptor (ER) [5]; Table 2 patient 6, ER+++/PR+++): inh
- Reporter response (estrogen receptor (ER) [5]; Table 2 patient 7, ER+++/PR+++, Post): inh
- Reporter response (estrogen receptor (ER) [6]; Table 2 patient 3 Ln): inh
- Reporter response (estrogen receptor (ER) [6]; Table 2 patient 5 Ln, ER+/PR−, Pre): ns
- Reporter response (estrogen receptor (ER) [6]; Table 2 patient 8, ER+++/PR−, Post): ns
- Reporter response (estrogen receptor (ER) [6]; Table 2 patient 11, receptor status ?): inh
- Reporter response (estrogen receptor (ER) [6]; Table 2 patient 12 Ln): ns
- Reporter response (estrogen receptor (ER) [6]; Table 2 patient 12 Tu, Anaplastic small cell carcinoma, ER−/PR−): ns
- Reporter response (estrogen receptor (ER) [6]; Table 2 patient 13, ER−/PR−, Post): ns
- Reporter response (estrogen receptor (ER) [6]; Table 2 patient 15 Ln): ns
- Reporter response (estrogen receptor (ER) [6]; Table 2 patient 15 Tu, ER−/PR−): ns
- Reporter response (estrogen receptor (ER) [6]; Table 2 patient 16 Ln): ns
- Reporter response (estrogen receptor (ER) [6]; Table 2 patient 16 Tu, Post): ns
- Reporter response (estrogen receptor (ER) [6]; Table 2 patient 17): ns
- Reporter response (estrogen receptor (ER) [6]; Table 2 patient 18, ER−/PR−): ns
- effect on reporter activity across patient samples (estrogen receptor (ER) [6]; purified cells from breast cancer and lymph nodes of 19 patients): inhibitory in all cases
